The record followed here is patent US20160311791A1, “NOVEL TRICYCLIC CALCIUM SENSING RECEPTOR ANTOGONISTS FOR THE TREATMENT OF OSTEOPOSOSIS” (MERCK SHARP & DOHME CORP., priority 2013, published 2016).

Molecules are shown by their SMILES.

The target in the assay is T1, human CaSR (Homo sapiens, UniProt P41180).
T1 sequence (P41180 20-1078): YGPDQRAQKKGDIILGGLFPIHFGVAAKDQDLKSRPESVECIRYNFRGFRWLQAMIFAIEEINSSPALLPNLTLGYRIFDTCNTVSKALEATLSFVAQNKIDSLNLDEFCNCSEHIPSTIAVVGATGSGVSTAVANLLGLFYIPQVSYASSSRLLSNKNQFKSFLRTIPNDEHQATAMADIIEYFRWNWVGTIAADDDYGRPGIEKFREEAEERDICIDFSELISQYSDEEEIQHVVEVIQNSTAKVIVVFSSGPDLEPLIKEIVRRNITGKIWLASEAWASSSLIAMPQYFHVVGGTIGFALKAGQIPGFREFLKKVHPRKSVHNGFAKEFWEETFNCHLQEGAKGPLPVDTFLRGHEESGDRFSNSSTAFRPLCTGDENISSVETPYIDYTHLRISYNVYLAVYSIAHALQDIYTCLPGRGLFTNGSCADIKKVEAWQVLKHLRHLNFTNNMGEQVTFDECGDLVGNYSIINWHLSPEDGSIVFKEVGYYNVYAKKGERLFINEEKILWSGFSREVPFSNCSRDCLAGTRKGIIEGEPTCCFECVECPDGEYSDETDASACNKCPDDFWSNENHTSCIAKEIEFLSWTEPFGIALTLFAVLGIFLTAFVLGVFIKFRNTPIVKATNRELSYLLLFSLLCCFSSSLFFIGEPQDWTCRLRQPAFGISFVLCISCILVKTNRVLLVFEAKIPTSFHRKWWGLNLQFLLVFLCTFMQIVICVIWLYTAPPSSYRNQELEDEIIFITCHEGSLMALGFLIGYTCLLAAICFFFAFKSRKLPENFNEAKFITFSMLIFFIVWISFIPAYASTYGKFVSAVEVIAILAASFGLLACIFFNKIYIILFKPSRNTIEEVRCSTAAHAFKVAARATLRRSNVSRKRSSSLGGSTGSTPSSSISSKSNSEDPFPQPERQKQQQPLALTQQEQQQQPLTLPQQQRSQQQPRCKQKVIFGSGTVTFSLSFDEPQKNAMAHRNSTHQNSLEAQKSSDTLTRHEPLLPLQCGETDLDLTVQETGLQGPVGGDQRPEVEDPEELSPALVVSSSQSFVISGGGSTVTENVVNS
As to the kind of experiment: CaSR FLIPR assay (calcilytic activity). The format is cell-based. Particulars: HEK293 cells stably expressing human recombinant CaSR; 1 mM CaCl2 agonist; Tables 1-24; read-out: FLIPR ASSAY IC50. Set-up: expressed in transfected cells. Here is the method: Procedures for CaSR FLIPR Assay
Calcilytic activity of the compound is measured in HEK293 cells stably expressing human recombinant CaSR (HEK-CaSR) using a FLIPR^TETRA device (Molecular Devices, Sunnyvale, Calif.) according to the manufacturer's directions. […] On the day of the assay, one vial of FLIPR Calcium 4 Assay Kit reagent Component A was equilibrated to room temperature. The content of the Component A vial was diluted by adding 10 ml dilution buffer (2×loading dye). The sample was mixed by vortexing (1-2 minutes) until the contents of the vial dissolved. The Component A vial mixture was diluted with 10 ml dilution buffer. Media was aspirated from the cells and 80 μl of loading buffer was added to each well. Plates were incubated for 1 hour at 37° C. and then placed at room temperature for 10 minutes. A two-stage method of generating 10-point serial dilutions was used. Compound was serially diluted in 100% DMSO (10 point, 3-fold dilution of each compound from 2 mM in 100% DMSO). 3 μl of serially diluted compound was transferred into a second assay microplate that contained 97 μl of TETRA dilution buffer (20 mM HEPES pH7.4, 1×HBSS without Ca and Mg, 0.4 mM CaCl2, 0.4 mM MgSO4, 0.5 mM MgCl2) to create the intermediate dilution plate. After reading the base line, the compounds in 0.5% DMSO in dilution buffer were added to their respective wells as 20 μl aliquots at 6×the final drug concentration. The fluorescence signals were then read. Subsequently, 20 μl of 3.6 mM of CaCl2 agonist (1 mM final concentration) was added to each well. For background, 20 μl of TETRA dilution buffer was added instead. The protocol consisted of a pre-addition read of 10 frames (10×1 frame/sec), a post 1st addition read of 100 frames (60×1 frame/sec, 40×1 frame/3 sec), pause 3 min, a post 2nd addition read of 100 frames (60×1 frame/sec, 40×1 frame/3 sec) on a FLIPR^TETRA Plate Reader.

With `CSc1ccc(CC(C)(C)NC[C@@H](O)CO[C@H](C)c2cccc3c2[C@@H]2[C@H](O3)[C@H]2C(=O)O)cc1C` [Example 5-19], the IC50 (as a rule, the midpoint of a concentration-inhibition curve) came out at 97 nM.
With `C[C@@H](OC[C@H](O)CNC(C)(C)Cc1ccc2ccccc2c1)c1cccc2c1C[C@@H]1[C@@H](C(=O)O)[C@H]21` [Example 14-1], the IC50 worked out at 270 nM.
On to `Cc1cc(Cl)c([C@@H](C)OC[C@H](O)CNC(C)(C)Cc2ccc3occc3c2)c2c1O[C@@H]1[C@@H](C(=O)O)[C@H]21` [Example 16-2], for which the IC50 was found to be 17 nM.
Then `C[C@@H](OC[C@H](O)CNC(C)(C)C(=O)N1CCc2ccccc2C1)c1cccc2c1O[C@H]1[C@H](C(=O)O)[C@@H]21` [Example 2-7], with no less than 10000 nM; and `Cc1ccc([C@@H](C)OC[C@H](O)CNC(C)(C)Cc2ccc3sccc3c2)c2c1O[C@@H]1[C@@H](C(=O)O)[C@H]21` [Example 8-12], with 10 nM.
For the compound `Cc1ccc([C@@H](C)OC[C@H](O)CNC(C)(C)CC2Cc3ccccc3C2)c2c1O[C@@H]1[C@@H](C(=O)O)[C@H]21` [Example 8-3], the IC50 turned out to be 20 nM.
Then `C[C@@H](OC[C@H](O)CNC(C)(C)Cc1ccc([S+](C)[O-])c(F)c1)c1cccc2c1[C@@H]1[C@H](O2)[C@H]1C(=O)O` (stereo partly drawn) [Example 5-15], with greater than 10000 nM; and `CCOC(=O)[C@@H]1[C@H]2Oc3c(C)ccc([C@@H](C)OC[C@H](O)CNC(C)(C)Cc4ccc(SC)c(F)c4)c3[C@H]21` [Example 12-1], with 130 nM; and `C[C@@H](OC[C@H](O)CNC(C)(C)Cc1ccc([S+](C)[O-])c(F)c1)c1cccc2c1O[C@@H]1[C@@H](C(=O)O)[C@H]21` (stereo partly drawn) [Example 1-18], with greater than 10000 nM.
Then `C[C@@H](OC[C@H](O)CNC(C)(C)CCSc1ccccc1)c1cccc2c1O[C@@H]1[C@@H](C(=O)O)[C@H]21` [Example 1-20], with 330 nM.
As for `C[C@@H](OC[C@H](O)CNC(C)(C)Cc1ccc2occc2c1)c1cccc2c1[C@@H]1[C@H](C2)[C@H]1C(=O)O` [Example 13-2], the figure is 47 nM; as for `Cc1ccc(CC(C)(C)NC[C@@H](O)CO[C@H](C)c2cccc3c2O[C@@H]2[C@@H](C(=O)O)[C@H]32)c(F)c1` [Example 1-11], 140 nM.
In the case of `C[C@@H](OC[C@H](O)CNC(C)(C)Cc1ccc2c(c1)OCO2)c1cccc2c1[C@@H]1[C@H](O2)[C@H]1C(=O)O` [Example 5-8], the IC50 was determined as 160 nM.
Then `Cc1cc(Cl)c([C@@H](C)OC[C@H](O)CNC(C)(C)Cc2ccc3sccc3c2)c2c1O[C@@H]1[C@@H](C(=O)O)[C@H]21` [Example 16-3], with 14 nM.
Then `CSc1ccc(CC(C)(C)NC[C@@H](O)CO[C@H](C)c2cccc3c2[C@@H]2[C@H](O3)[C@H]2C(=O)O)cc1Cl` [Example 5-18], with 53 nM.
Then `Cc1ccc(CC(C)(C)NC[C@@H](O)CO[C@H](C)c2cccc3c2O[C@@H]2[C@@H](C(=O)O)[C@H]32)cc1F` [Example 1-4], with 78 nM.
For `C[C@@H](OC[C@H](O)CNC(C)(C)Cc1ccc2occc2c1)c1cccc2c1[C@@H]1[C@H](O2)[C@H]1C(=O)O` [Example 5-6], the IC50 was 137 nM.
Then `CC(OC[C@H](O)CNC(C)(C)Cc1ccc2ccccc2c1)c1cccc2c1C1C(S2)C1C(=O)O` (stereo partly drawn) [Example 23-1], with 42 nM; and `Cc1ccc([C@@H](C)OC[C@H](O)CNC(C)(C)Cc2ccc3c(c2)OCCO3)c2c1O[C@@H]1[C@@H](C(=O)O)[C@H]21` [Example 8-13], with 22 nM; and `C[C@@H](OC[C@H](O)CNC(C)(C)Cc1ccc(Cl)c(F)c1)c1cccc2c1O[C@H]1[C@H](C(=O)O)[C@@H]21` [Example 2-2], with 148 nM.
Then `C[C@@H](OC[C@H](O)CNC(C)(C)CCCc1ccccc1)c1cccc2c1O[C@@H]1[C@@H](C(=O)O)[C@H]21` [Example 1-14], with 38 nM.
For `Cc1ccc([C@@H](C)OC[C@H](O)CNC(C)(C)CCSc2ccccc2)c2c1O[C@@H]1[C@@H](C(=O)O)[C@H]21` [Example 8-30], the IC50 worked out at 50 nM.
As for `C[C@@H](OC[C@H](O)CNC(C)(C)Cc1ccc(F)c(F)c1)c1cccc2c1O[C@@H]1[C@@H](C(=O)O)[C@H]21` [Example 1-15], the figure is 1270 nM; as for `Cc1ccc([C@@H](C)OC[C@H](O)CNC(C)(C)Cc2c(F)cc(F)cc2F)c2c1O[C@@H]1[C@@H](C(=O)O)[C@H]21` [Example 8-22], 210 nM.
Turning to `C[C@@H](OC[C@H](O)CNC(C)(C)Cc1ccc2ccccc2c1)c1cccc2c1O[C@H]1[C@H](C(=O)O)[C@@H]21` [Example 2-1], the IC50 was found to be 132 nM.
As for `C[C@@H](OC[C@H](O)CNC(C)(C)Cc1ccc2occc2c1)c1cccc2c1O[C@@H]1[C@@H](C(=O)O)[C@H]21` [Example 1-6], the figure is 49 nM; as for `Cc1ccc([C@@H](C)OC[C@H](O)CNC(C)(C)Cc2cccc3ccccc23)c2c1O[C@@H]1[C@@H](C(=O)O)[C@H]21` [Example 8-9], 119 nM.
For the compound `C[C@@H](OC[C@H](O)CNC(C)(C)CCSc1ccccc1)c1cccc2c1[C@@H]1[C@H](O2)[C@H]1C(=O)O` [Example 5-17], the IC50 came to 150 nM.
Then `Cc1ccc([C@@H](C)OC[C@H](O)CNC2(Cc3ccc4ccccc4c3)CC2)c2c1O[C@H]1[C@H](C(=O)O)[C@@H]21` [Example 9-7], with 187 nM.
As for `Cc1ccc(CC(C)(C)NC[C@@H](O)CO[C@H](C)c2ccc(C)c3c2[C@H]2[C@@H](O3)[C@@H]2C(=O)O)cc1F` [Example 9-4], the figure is 68 nM; as for `COc1ccc(CC(C)(C)NC[C@@H](O)CO[C@H](C)c2ccc(C)c3c2[C@@H]2[C@H](O3)[C@H]2C(=O)O)c(F)c1` [Example 8-14], 30 nM; as for `Cc1ccc([C@@H](C)OC[C@H](O)CNC(C)(C)Cc2ccc(Cl)c(Cl)c2)c2c1O[C@H]1[C@H](C(=O)O)[C@@H]21` [Example 9-10], 42 nM.
As for `CSc1ccc(CC(C)(C)NC[C@@H](O)CO[C@H](C)c2cccc3c2[C@@H]2[C@H](C3)[C@H]2C(=O)O)cc1F` [Example 13-5], the figure is 130 nM; as for `C[C@@H](OC[C@H](O)CNC(C)(C)Cc1ccc2ccccc2c1)c1c(Cl)ccc2c1[C@@H]1[C@H](O2)[C@H]1C(=O)O` [Example 15-1], 17 nM; as for `CSc1ccc(CC(C)(C)NC[C@@H](O)CO[C@H](C)c2ccc(C)c3c2C2[C@H](O3)[C@H]2C(=O)O)cc1` (stereo partly drawn) [Example 8-23], 40 nM.
On to `C[C@@H](OC[C@H](O)CNC(C)(C)Cc1ccc2sccc2c1)c1cccc2c1O[C@@H]1[C@@H](C(=O)O)[C@H]21` [Example 1-9], for which the IC50 worked out at 27 nM.
Then `Cc1ccc([C@@H](C)OC[C@H](O)CNC(C)(C)CC2Cc3ccccc3C2)c2c1O[C@H]1[C@H](C(=O)O)[C@@H]21` [Example 9-3], with 46 nM; and `C[C@@H](OC[C@H](O)CNC(C)(C)Cc1ccc2ccccc2c1)c1cc(F)cc2c1O[C@@H]1[C@@H](C(=O)O)[C@H]21` [Example 19-1], with 176 nM.
Then `C[C@@H](OC[C@H](O)CNC(C)(C)Cc1ccc2ccccc2c1)c1cccc2c1C[C@H]1[C@H](C(=O)O)[C@@H]21` [Example 14-2], with 150 nM.
